Broadly, the IC50 is the concentration that inhibits the measured activity by half. One may read the half-life as how long it takes for the measured level to halve. A low value points to fast loss. Broadly, the chromatographic logD is a lipophilicity value derived from retention on a column. Read a low chromatographic logD as lower lipophilicity. As a reminder, the bioavailability is the share of a dose that reaches the circulation, judged against a reference dose that is usually intravenous. A high value points to much systemic uptake. One may read the solubility as the dissolved amount per volume that the medium holds. As a reminder, the ED50 is the dose that gives a 50% effect, or the effect in half of the subjects. One may read the Cmax as the highest concentration seen after dosing.

In brackets after ≈: the same amount, converted by molar mass. Activity calls are given as the source filed them. No cut-off for these calls is given here.

One series concerns Liver. The series can be described thus: Intrinsic clearance in mouse liver microsomes assessed per gram of protein at 100 uM by HPLC analysis. The series is classed as ADME, Microsome. For orientation: Microsomes from liver hold many membrane-bound enzymes, among them those of drug oxidation.
The next series concerns Liver microsomes. The series can be described thus: Intrinsic clearance in human liver microsomes assessed per gram of protein at 100 uM by HPLC analysis. The series is classed as ADME, Microsome.
The test system of series [1] is Plasmodium falciparum. The series can be described thus: Antiplasmodial activity against Plasmodium falciparum 3D7 infected in human erythrocytes assessed as inhibition of [3H]hypoxanthine incorporation after 24 hrs by microbeta counter. The series is classed as functional, organism-based.
Series [2] can be described thus: Half life in mouse liver microsomes at 100 uM by HPLC analysis. The series is classed as ADME, Microsome.
The nature of series [3]: Half life in human liver microsomes at 100 uM by HPLC analysis. The series is classed as ADME, Microsome.
Series [4] in a line: Lipophilicity, log D of the compound by chromatographic hydrophobicity index assay. The series is classed as physicochemical.
The subject of series [5] is Plasmodium falciparum. In words: Antiplasmodial activity against Plasmodium falciparum 3D7 by parasite lactate dehydrogenase assay. The series is classed as functional, organism-based.
The nature of series [6]: Half life in CD1 mouse at 2 mg/kg, iv administered with 3% solutol, 7% PEG in saline by LC/MS analysis. The series is classed as ADME, organism-based. More on the design: dose 2 mg/kg, route intravenous. As to conditions: in vivo.
Series [7] in a line: Oral bioavailability in CD1 mouse at 20 mg/kg administered with 1% methylcellulose in water by LC/MS analysis. As to conditions: in vivo. The series is classed as ADME, organism-based.
Series [8] can be described thus: Solubility of the compound in DMSO by chemiluminescent nitrogen detection assay. The series is classed as physicochemical.
Series [9] has as its system Plasmodium falciparum. The series can be described thus: Antiplasmodial activity Plasmodium falciparum 3D70087/N9 infected in NODscidIL2Rgammac-/- mouse assessed as reduction of parasitemia administered 3 days after infection measured on day 3 to 7 by flow cytometry. The series is classed as functional. As to conditions: 3D70087/N9, 72 h.
The target in series [10] is T1, Nuclear receptor subfamily 1 group I member 2 (Homo sapiens, UniProt O75469).
T1 sequence (O75469 whole entry): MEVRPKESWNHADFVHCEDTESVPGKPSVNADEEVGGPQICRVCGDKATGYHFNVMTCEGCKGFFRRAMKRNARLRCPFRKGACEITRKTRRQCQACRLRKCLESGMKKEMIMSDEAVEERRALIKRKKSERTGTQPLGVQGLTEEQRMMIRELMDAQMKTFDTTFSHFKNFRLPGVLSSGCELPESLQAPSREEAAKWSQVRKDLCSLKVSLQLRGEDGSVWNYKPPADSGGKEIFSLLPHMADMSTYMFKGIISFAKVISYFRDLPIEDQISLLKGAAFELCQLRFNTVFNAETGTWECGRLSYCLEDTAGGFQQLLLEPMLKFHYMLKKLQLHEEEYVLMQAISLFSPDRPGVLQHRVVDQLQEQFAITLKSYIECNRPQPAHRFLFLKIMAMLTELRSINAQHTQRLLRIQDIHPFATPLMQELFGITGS
The series can be described thus: Activity at PXR at 2.5 uM.

A short description of series [11]: Volume of distribution in CD1 mouse at 2 mg/kg, iv and 20 mg/kg, po by LC/MS analysis. The series is classed as ADME, organism-based. As to conditions: in vivo.
Another series has as its target Cytochrome P450 2C19 (Homo sapiens, UniProt P33261). The series can be described thus: Inhibition of CYP2C19. The series is classed as ADME.
Series [12] is described as follows: Cmax in CD1 mouse at 20 mg/kg, po administered with 1% methylcellulose in water by LC/MS analysis. The series is classed as ADME, organism-based. More on the design: dose 20 mg/kg, route oral. As to conditions: in vivo.
In series [13] the test system is Mus musculus. The series can be described thus: AUC (0 to t) in CD1 mouse at 20 mg/kg, po administered with 1% methylcellulose in water by LC/MS analysis. The series is classed as ADME, organism-based. More on the design: dose 20 mg/kg, route oral. As to conditions: in vivo.
Series [14] deals with Mus musculus. In words: AUC (0 to t) in CD1 mouse at 2 mg/kg, iv administered with 3% solutol, 7% PEG in saline by LC/MS analysis. The series is classed as ADME, organism-based, Plasma. Further details: dose 2 mg/kg, route intravenous. As to conditions: in vivo.
A further series concerns the target Cytochrome P450 2D6 (Homo sapiens, UniProt P10635). The series can be described thus: Inhibition of CYP2D6. The series is classed as ADME.
The next series addresses Cytochrome P450 3A4 (Homo sapiens, UniProt P08684). In words: Inhibition of CYP3A4. The series is classed as ADME.
A further series has as its target Cytochrome P450 2C9 (Homo sapiens, UniProt P11712). In words: Inhibition of CYP2C9. The series is classed as ADME.
The target in series [15] is 3',5'-cyclic-AMP phosphodiesterase 4B (Homo sapiens) (UniProt Q07343). The series can be described thus: Activity of PDE4B at 0.3 uM.
Series [16] in a line: Protein binding in mouse plasma. The series is classed as ADME, cell-free. As to conditions: read-out: PPB (converted).
In series [17] the target is T1, Nuclear receptor subfamily 1 group I member 2. In words: Activity at PXR at 1 uM.
The nature of series [18]: Clearance in CD1 mouse at 2 mg/kg, iv and 20 mg/kg, po by LC/MS analysis. The series is classed as ADME, organism-based. As to conditions: in vivo.
Series [19] can be described thus: Clearance in CD1 mouse at 2 mg/kg, iv and 20 mg/kg, po by LC/MS analysis. As to conditions: in vivo.
Series [20] can be described thus: Half life in CD1 mouse at 2 mg/kg, iv administered with 20% encapsine in water by LC/MS analysis. As to conditions: in vivo.
The nature of series [21]: Protein binding in human plasma. As to conditions: read-out: PPB. The series is classed as ADME, cell-free.
Series [22] deals with Mus musculus. The series can be described thus: AUC (0 to t) in CD1 mouse at 2 mg/kg, iv administered with 20% encapsine in water by LC/MS analysis. As to conditions: in vivo.
Series [23] in a line: Volume of distribution in CD1 mouse at 2 mg/kg, iv and 20 mg/kg, po by LC/MS analysis. As to conditions: in vivo.

Cytochrome P450 2D6, sequence (P10635 whole entry): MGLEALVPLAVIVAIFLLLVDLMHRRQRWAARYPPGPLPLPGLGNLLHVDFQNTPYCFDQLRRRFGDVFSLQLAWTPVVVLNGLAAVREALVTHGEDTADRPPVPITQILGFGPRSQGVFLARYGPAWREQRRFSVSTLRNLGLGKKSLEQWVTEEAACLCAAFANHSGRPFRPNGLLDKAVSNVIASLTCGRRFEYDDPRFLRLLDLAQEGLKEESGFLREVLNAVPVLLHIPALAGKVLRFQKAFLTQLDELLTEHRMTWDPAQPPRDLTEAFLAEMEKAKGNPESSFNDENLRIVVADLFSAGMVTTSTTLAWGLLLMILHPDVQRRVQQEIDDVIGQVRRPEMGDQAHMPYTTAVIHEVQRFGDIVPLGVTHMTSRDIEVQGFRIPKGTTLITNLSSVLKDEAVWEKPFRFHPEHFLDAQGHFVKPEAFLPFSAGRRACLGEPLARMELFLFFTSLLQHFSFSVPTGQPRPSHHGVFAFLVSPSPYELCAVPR
Cytochrome P450 3A4, sequence (P08684 whole entry): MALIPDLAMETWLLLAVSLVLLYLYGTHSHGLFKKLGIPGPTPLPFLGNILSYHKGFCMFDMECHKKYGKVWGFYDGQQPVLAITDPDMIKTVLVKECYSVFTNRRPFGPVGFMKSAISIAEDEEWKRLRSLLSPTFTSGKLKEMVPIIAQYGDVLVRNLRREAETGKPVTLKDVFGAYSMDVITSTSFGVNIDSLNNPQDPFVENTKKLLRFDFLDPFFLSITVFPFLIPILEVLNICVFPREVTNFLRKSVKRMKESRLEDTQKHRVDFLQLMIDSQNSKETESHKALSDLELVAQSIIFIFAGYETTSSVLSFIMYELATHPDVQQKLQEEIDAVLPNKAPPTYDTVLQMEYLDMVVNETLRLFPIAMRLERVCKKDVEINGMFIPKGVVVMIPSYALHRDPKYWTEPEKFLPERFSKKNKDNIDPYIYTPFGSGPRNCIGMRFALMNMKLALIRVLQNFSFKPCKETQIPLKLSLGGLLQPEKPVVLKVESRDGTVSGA
Cytochrome P450 2C19, sequence (P33261 whole entry): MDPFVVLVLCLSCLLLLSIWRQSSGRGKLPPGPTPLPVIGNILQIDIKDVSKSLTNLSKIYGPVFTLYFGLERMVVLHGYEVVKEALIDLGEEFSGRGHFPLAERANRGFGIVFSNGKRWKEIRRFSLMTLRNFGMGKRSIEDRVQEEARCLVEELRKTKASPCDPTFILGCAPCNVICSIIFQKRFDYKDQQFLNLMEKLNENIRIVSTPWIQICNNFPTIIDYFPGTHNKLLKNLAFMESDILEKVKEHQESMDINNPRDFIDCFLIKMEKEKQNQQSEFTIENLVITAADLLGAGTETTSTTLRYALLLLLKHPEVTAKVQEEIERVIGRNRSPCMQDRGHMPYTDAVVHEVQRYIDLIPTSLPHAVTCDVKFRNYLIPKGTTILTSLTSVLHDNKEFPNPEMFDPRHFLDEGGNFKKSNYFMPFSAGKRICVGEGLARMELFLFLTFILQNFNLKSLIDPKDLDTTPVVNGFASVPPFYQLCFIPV
Cytochrome P450 2C9, sequence (P11712 whole entry): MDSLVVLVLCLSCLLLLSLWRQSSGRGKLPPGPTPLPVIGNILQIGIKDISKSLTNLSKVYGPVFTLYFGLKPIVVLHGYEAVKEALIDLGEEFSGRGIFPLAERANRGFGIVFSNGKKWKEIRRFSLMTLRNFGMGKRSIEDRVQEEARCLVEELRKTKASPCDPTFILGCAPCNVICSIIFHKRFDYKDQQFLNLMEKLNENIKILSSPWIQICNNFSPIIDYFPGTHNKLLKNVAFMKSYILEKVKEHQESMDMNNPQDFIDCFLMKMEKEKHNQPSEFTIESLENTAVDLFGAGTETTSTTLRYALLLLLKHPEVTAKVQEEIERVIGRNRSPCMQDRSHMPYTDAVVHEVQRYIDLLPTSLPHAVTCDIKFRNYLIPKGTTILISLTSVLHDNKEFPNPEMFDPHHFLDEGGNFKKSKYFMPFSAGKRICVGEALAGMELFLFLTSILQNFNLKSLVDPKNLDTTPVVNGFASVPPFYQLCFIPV
3',5'-cyclic-AMP phosphodiesterase 4B (Homo sapiens), sequence (Q07343 whole entry): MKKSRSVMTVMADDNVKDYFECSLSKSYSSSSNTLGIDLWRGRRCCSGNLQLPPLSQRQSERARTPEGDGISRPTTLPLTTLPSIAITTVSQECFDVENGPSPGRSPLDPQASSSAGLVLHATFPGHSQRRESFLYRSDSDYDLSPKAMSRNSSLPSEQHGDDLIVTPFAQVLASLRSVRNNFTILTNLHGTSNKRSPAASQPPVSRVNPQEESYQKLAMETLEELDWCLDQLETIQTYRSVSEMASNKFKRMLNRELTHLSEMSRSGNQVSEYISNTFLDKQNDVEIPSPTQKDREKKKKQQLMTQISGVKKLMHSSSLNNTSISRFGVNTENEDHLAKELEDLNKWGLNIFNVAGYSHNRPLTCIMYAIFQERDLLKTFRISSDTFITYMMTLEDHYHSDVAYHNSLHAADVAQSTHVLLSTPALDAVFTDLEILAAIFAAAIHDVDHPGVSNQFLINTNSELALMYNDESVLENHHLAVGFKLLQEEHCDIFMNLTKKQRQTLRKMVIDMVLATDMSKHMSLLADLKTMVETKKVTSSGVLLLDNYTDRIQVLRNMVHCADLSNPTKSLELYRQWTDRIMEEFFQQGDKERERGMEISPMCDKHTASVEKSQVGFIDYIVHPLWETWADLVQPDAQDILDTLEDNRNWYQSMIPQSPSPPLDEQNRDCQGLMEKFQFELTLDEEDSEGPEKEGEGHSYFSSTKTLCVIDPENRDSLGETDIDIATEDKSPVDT

As for `CC(Oc1ccccc1Cl)C(=O)Nc1cc(C(F)(F)F)ccc1-n1cncn1` (racemic), the results for the CLint with Liver and with Liver microsomes were 5.6 mL/min/g and 1.6 mL/min/g, respectively. In the series with Plasmodium falciparum [1], the concentration for half-maximal inhibition (IC50) worked out at 190 nM. The half-life at 100 µM was 11.7 min in series [2] and greater than 30 min in series [3].

`CC(Oc1ccccc1)C(=O)Nc1cc(C(F)(F)F)ccc1-n1cncn1` (racemic): the results for the CLint with Liver and in the series on Liver microsomes were 5.3 mL/min/g and 2.9 mL/min/g, respectively. In addition, in the series on Plasmodium falciparum [1], the IC50 was found to be 897 nM. Moreover, the half-life at 100 µM in series [2] worked out at 12 min; in [3], 24.7 min.

`CC(Oc1ccc(Cl)cc1)C(=O)Nc1cc(C(F)(F)F)ccc1-n1cncn1` (racemic): the CLint worked out at 4.1 mL/min/g in the series on Liver and 3.3 mL/min/g in the series with Liver microsomes. In the series on Plasmodium falciparum [1], the IC50 turned out to be 394 nM. In [4], this molecule yielded a chromatographic logD of 3.84. Moreover, the values for the half-life at 100 µM in [2] and in [3] were 13.6 min and 21.8 min, respectively.

As for `Cc1ccnc2nc(C(=O)Nc3cc(C(F)(F)F)ccc3N3CCCCC3)nn12`, the IC50 with Plasmodium falciparum [5] was 73 nM; in the series on Plasmodium falciparum [1], 3970 nM.

`CC(Oc1ccc(Cl)cc1)C(=O)Nc1cc(C(F)(F)F)ccc1N1CCOCC1` (racemic): the concentration for half-maximal inhibition (IC50) with Plasmodium falciparum [1] was determined as 439 nM. The molecule further gave a chromatographic logD in series [4] of 4.56.

As to `CC(Oc1cccc(Cl)c1)C(=O)Nc1cc(C(F)(F)F)ccc1-n1cncn1` (racemic), the CLint came out at 7.9 mL/min/g in the series with Liver and 1.2 mL/min/g in the series on Liver microsomes. Moreover, the IC50 in the series with Plasmodium falciparum [1] stood at 327 nM. In addition, the figures for the half-life at 100 µM in series [2] and in [3] were 6.2 min and greater than 30 min, respectively.

With `O=C(Nc1cc(Cl)ccc1-n1cncn1)C1(c2ccccc2)CC1`, the 50% inhibitory concentration (IC50) in the series on Plasmodium falciparum [1] came to 1700 nM.

In turn, `O=C(Nc1cc(C(F)(F)F)ccc1-n1cncn1)C1(c2cccc(C(F)(F)F)c2)CC1` showed a half-life in series [6] of 612 min. The molecule further displayed a bioavailability in series [7] of 55%. Further, in series [8], the solubility amounted to 9 µM (≈ 3.96 µg/mL). Moreover, the median effective dose (ED50) in the series with Plasmodium falciparum [9] was 12 mg/kg. For the same molecule, in the series with Plasmodium falciparum [9], the ED90 was 20 mg/kg. Also, the result in series [10] and in series [17] was Active. Also, the Vd in series [11] is 11.9 L/kg. For the same molecule, the INH was greater than 10 µM at Cytochrome P450 2C19, greater than 10 µM at Cytochrome P450 2D6, greater than 10 µM on Cytochrome P450 3A4 and 6.3 µM on Cytochrome P450 2C9. Further, the peak level in series [12] (Cmax) was 1090 ng/mL. Further, the AUCt was determined as 13.6 µg/h/mL with Mus musculus [13] and 2.23 µg/h/mL with Mus musculus [14]. Besides, the outcome in [15] was Active. Further, in series [16], the fraction unbound is 0.006. This molecule also yielded a clearance in series [18] of 14.3 mL/min/kg.

On to `Cc1cc(C)n2nc(C(=O)Nc3cc(C(F)(F)F)ccc3N3CCOCC3)nc2n1`, for which the IC50 in the series on Plasmodium falciparum [5] is 11 nM; with Plasmodium falciparum [1] it was greater than 5000 nM.

As to `O=C(Nc1cc(C(F)(F)F)ccc1-n1cncn1)C1(c2ccccc2)CC1`, the bioavailability in [7] is 81%. The molecule further yielded a solubility in series [8] of 100 µM (≈ 37.2 µg/mL). The median effective dose (ED50) in the series on Plasmodium falciparum [9] was greater than 50 mg/kg. For the same molecule, the ED90 with Plasmodium falciparum [9] was greater than 50 mg/kg. The outcome in series [10] was Active. For the same molecule, the clearance in [19] worked out at 29.7 mL/min/kg. For the same molecule, the INH at Cytochrome P450 2C19 was greater than 10 µM; on Cytochrome P450 2D6, greater than 10 µM; at Cytochrome P450 3A4, greater than 10 µM; at Cytochrome P450 2C9 it was 7.9 µM. The same molecule had a Cmax in series [12] of 2340 ng/mL. Further, the AUCt with Mus musculus [13] was 9.71 µg/h/mL; in the series on Mus musculus [22] it was 0.596 µg/h/mL. In [20], the half-life is 166 min. Also, the IC50 with Plasmodium falciparum [1] worked out at 66 nM. The same molecule had a chromatographic logD in [4] of 3.83. Also, the fraction unbound in [21] and in [16] was 0.01 throughout. Moreover, in [23], the Vd stood at 6.47 L/kg.

With `CC(Oc1cccc(C(F)(F)F)c1)C(=O)Nc1cc(C(F)(F)F)ccc1-n1cncn1` (racemic), the IC50 in the series with Plasmodium falciparum [1] stood at 285 nM.

With `CCN(CC)CCCC(C)Nc1ccnc2cc(Cl)ccc12` (configuration not stated) [CHLOROQUINE], in the series on Plasmodium falciparum [9], the median effective dose (ED50) worked out at 2 mg/kg.

Values taken from ChEMBL document CHEMBL2016447, “Cyclopropyl Carboxamides: A New Oral Antimalarial Series Derived from the Tres Cantos Anti-Malarial Set (TCAMS)” (ACS Med Chem Lett, 2011).
